ChEMBL document CHEMBL1201862, “PubChem BioAssay data set” (2004)
Active and inactive are the calls of the source.

Key:
INS1 = assay: INS-1E survival protection against cytokine death – cell-based, luminescence, retest, dose response (AID 449756); format: functional; settings: Rattus norvegicus;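 also: cell death triggered by IL-1 beta plus TNF-alpha plus IFN-gamma mixture; protective hits raise ATP signal compared with cytokine alone wells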
[1] = biological target: T1, Apoptotic protease-activating factor 1 (Homo sapiens, UniProt O14727); format: functional
T1 sequence (O14727 whole entry): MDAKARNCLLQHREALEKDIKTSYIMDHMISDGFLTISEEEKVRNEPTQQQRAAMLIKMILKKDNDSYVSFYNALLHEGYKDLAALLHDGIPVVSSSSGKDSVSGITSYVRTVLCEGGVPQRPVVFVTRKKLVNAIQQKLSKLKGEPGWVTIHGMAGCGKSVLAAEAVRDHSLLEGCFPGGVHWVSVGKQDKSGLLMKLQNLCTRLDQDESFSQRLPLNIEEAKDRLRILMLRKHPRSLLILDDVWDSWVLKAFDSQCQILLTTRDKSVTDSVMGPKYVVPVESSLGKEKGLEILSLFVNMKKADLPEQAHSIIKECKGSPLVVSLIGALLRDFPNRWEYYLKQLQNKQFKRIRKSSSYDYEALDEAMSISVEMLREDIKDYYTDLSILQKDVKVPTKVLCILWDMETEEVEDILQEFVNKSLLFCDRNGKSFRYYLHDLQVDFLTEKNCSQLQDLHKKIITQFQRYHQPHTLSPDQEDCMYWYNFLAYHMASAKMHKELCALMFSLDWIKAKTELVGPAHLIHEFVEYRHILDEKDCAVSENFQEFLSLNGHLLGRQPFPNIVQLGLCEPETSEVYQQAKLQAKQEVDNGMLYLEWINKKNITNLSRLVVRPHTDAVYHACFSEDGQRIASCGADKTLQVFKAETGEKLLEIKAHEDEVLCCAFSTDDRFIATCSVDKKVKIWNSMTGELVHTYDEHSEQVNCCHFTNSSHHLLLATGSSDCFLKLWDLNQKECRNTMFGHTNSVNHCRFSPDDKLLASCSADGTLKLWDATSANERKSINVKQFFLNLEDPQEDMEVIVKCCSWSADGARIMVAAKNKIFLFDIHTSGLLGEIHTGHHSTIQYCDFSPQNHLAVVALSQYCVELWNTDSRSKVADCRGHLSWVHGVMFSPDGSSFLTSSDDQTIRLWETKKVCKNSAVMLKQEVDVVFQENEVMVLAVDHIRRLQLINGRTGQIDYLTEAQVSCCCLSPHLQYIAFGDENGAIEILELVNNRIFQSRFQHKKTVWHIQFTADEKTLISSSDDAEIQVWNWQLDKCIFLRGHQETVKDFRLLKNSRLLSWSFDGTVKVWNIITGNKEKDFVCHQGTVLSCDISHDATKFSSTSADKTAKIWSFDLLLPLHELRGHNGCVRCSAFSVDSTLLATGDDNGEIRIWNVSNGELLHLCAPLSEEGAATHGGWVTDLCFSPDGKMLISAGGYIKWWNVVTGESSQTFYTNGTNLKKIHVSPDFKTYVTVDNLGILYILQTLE

[2] = biological target: Induced myeloid leukemia cell differentiation protein Mcl-1 (Homo sapiens, UniProt Q07820); format: functional
[3] = Trypanosoma cruzi growth suppression in host cells – NIH3T3 host cells, beta-gal luminescence, confirmation (AID 2044); format: functional, cell-based;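 also: intracellular parasites grown in NIH/3T3 mouse fibroblasts as host cells; luminescent beta-galactosidase reporter signal from transgenic T. cruzi replicating inside host cells; inhibitors lower the luminescence signal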
[4] = alpha-synuclein stem-loop luciferase translation blockers – H4 neuroglioma cells, luminescence, confirmation (AID 1988); format: functional, cell-based
[5] = NIH3T3 cell viability loss – ATP luminescence, mouse fibroblasts, counter-screen, dose response (AID 2010); format: functional, cell-based;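 also: cells exposed to compound for about 90 hours before reading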
[6] = Luminescence Cell-Based Dose Response HTS to Identify Inhibitors of 5'UTR Stem-Loop Driven Prion Protein mRNA Translation in H4 Neuroglioblastoma Cells. [Related pubchem assays: 1827 (Project Summary), 1813 (Primary HTS)]; format: functional
Nonstructural protein 1 = Nonstructural protein 1 (Influenza A virus, UniProt Q194T2); format: functional, Influenza A virus (A/California/07/2009(H1N1))
[7] = luciferase reporter signal suppression in cells – H4 neuroglioma cells, luminescence, dose response (AID 1990); format: functional, cell-based
[8] = biological target: T2, DNA repair protein RAD52 homolog (Homo sapiens, UniProt P43351); format: functional, biochemical
T2 sequence (P43351 whole entry): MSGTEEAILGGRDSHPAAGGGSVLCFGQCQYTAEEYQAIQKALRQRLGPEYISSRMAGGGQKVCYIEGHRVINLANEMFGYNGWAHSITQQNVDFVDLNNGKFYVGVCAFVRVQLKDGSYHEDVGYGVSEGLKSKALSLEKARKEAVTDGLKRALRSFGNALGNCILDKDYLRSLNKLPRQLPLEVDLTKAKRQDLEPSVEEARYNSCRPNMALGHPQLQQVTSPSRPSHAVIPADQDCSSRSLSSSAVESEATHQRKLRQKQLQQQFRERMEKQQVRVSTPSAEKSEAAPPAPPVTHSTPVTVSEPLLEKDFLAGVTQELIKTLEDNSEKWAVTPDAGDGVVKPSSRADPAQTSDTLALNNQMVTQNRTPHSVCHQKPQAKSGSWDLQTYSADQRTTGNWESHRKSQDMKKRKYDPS

cells [9] = assay: cells
[10] = viability of uninfected HEp-2 cells – cell-based, HTS, cytotoxicity control for RSV inhibitor project, dose response (AID 2410); format: functional; settings: human respiratory syncytial virus
[11] = A cytotoxicity screen of small molecule inhibitors of the PhoP region in Salmonella typhi identified in the primary screen. [Related pubchem assays: 1850, 1864, 1985 ]; format: functional
Troponin, cardiac muscle = Troponin, cardiac muscle (Homo sapiens, UniProt P19429+P45379+P63316); assay: Fluorescence-based biochemical high throughput dose response assay for activators of the calcium sensitivity of cardiac Regulated Thin Filaments (RTF). [Related pubchem assays (depositor defined):AID493008, AID493018, AID504382, AID504383]; format: protein-complex assay
[12] = microbe, parasite or virus in culture; format: functional; settings: Mycobacterium tuberculosis
[13] = HepG2 cell cytotoxicity, dose response, cytotoxicity control for non-replicating M. tuberculosis project (AID 489018); format: functional; settings: Mycobacterium tuberculosis
[14] = viability of HCT116 lacking mutant beta-catenin – cell-based, human colon tumor, dose response (AID 1045); format: functional;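 also: HCT116 colon tumor cells with beta catenin knocked out; cells exposed to compound for 60 hours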
[15] = THP-1 cell cytotoxicity, dose response, cytotoxicity control for non-replicating M. tuberculosis project (AID 489025); format: functional
[16] = Luminescence Cell-Based Dose Retest to Confirm Inhibitors of Cancer Stem Cells. [Related pubchem assays (depositor defined):AID2717, AID2721]; format: functional; settings: Homo sapiens
cells [17] = format: functional
[18] = viability of PTEN-deleted HCT116 cells – cell-based, HCT116 PTEN knockout, dose response (AID 1047); format: functional;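 also: HCT116 colon tumor cells with PTEN knocked out; cells exposed to compound for 60 hours before readout; potency for loss of cell viability measured by luminescence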
[19] = Vero E6 cell cytotoxicity, dose response, cytotoxicity control for non-replicating M. tuberculosis project, secondary assay (AID 492998); format: functional, VeroE6; settings: Vero C1008
Cytochrome P450 3A4 = Cytochrome P450 3A4 (Homo sapiens, UniProt P08684); settings: Potency;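 also: confirmatory qHTS run detecting inhibitors and substrates of CYP3A4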
Large T antigen = Large T antigen (Simian virus 40, UniProt P03070); format: functional, Betapolyomavirus macacae;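 also: Confirmatory-stage PubChem screen for compounds that inhibit SV40 T antigen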
[20] = biological target: T3, RNA-binding protein pos-1 (Caenorhabditis elegans, UniProt G5EF15); assay: disruptors of C. elegans POS-1 RNA interaction – biochemical, fluorescence polarization, dose response (AID 1964);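 also: purified POS-1 fused to maltose binding protein made in E. coli; potency of compounds blocking POS-1 binding to fluorescent RNA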
T3 sequence (G5EF15 whole entry): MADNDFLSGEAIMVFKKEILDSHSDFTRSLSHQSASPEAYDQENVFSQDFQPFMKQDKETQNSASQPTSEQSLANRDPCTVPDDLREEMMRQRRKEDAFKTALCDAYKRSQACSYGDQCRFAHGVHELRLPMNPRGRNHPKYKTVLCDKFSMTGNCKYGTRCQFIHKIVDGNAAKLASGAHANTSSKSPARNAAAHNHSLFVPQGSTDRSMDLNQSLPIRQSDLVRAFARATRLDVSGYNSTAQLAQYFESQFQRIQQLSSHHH

[21] = biological target: T4, Zinc finger protein mex-5 (Caenorhabditis elegans, UniProt Q9XUB2); assay: potency of MEX-5 RNA-binding blockers – biochemical, C. elegans, fluorescence polarization, dose response (AID 1960)
T4 sequence (Q9XUB2 whole entry): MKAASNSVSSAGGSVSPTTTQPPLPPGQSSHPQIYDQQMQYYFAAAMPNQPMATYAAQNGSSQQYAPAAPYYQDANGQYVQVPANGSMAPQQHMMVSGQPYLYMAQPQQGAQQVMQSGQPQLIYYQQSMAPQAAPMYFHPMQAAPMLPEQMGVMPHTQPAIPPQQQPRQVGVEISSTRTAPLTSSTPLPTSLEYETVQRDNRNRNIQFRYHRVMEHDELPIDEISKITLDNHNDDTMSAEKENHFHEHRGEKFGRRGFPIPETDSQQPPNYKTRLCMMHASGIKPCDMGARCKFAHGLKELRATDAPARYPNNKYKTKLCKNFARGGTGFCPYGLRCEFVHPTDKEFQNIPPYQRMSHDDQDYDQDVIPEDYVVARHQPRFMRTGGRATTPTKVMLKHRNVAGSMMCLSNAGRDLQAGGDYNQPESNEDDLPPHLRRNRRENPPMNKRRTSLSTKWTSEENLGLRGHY

[22] = biological target: T5, Carboxy-terminal domain RNA polymerase II polypeptide A small phosphatase 1 (Homo sapiens, UniProt Q9GZU7); assay: CTDSP1 inhibitors, concentration-response, biochemical, absorbance readout, ultra-high-throughput screen actives (AID 540297); format: functional
T5 sequence (Q9GZU7 whole entry): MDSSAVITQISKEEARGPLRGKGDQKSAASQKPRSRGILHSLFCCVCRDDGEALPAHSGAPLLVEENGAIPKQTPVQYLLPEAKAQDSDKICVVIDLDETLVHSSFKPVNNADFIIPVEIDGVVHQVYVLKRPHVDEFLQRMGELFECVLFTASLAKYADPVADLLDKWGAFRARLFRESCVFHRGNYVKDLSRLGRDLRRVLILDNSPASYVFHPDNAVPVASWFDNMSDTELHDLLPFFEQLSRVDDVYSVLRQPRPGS

[23] = toxicity to human hepatoma HepG2 cells – cell-based, cherry-picked samples, cytotoxicity control, dose response (AID 1159577); format: functional
[24] = P. falciparum Dd2 growth inhibitors, dose response, SYBR Green, cherry-picked samples (AID 1159567); format: functional, cell-based

Chain of Cytochrome P450 3A4 (P08684 whole entry): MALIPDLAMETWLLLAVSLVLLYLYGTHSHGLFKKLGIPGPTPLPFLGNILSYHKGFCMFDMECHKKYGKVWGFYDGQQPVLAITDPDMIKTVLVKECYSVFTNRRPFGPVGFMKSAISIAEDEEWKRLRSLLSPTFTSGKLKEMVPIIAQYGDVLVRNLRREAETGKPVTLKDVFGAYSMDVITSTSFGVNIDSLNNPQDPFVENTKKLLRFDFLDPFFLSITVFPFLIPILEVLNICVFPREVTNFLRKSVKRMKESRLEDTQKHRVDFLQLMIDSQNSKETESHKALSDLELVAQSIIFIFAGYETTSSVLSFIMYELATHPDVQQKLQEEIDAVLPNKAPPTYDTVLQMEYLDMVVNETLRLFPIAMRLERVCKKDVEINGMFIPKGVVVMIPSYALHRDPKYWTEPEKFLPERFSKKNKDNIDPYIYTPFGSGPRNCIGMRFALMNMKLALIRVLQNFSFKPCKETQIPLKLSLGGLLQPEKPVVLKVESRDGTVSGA
Chain of Nonstructural protein 1 (Q194T2 whole entry): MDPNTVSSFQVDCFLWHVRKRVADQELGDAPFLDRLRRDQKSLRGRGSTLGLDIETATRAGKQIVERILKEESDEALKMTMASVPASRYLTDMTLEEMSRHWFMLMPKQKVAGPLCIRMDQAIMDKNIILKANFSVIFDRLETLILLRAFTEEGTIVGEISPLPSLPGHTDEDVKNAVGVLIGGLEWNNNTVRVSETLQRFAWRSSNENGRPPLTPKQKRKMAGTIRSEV
Chain of Induced myeloid leukemia cell differentiation protein Mcl-1 (Q07820 whole entry): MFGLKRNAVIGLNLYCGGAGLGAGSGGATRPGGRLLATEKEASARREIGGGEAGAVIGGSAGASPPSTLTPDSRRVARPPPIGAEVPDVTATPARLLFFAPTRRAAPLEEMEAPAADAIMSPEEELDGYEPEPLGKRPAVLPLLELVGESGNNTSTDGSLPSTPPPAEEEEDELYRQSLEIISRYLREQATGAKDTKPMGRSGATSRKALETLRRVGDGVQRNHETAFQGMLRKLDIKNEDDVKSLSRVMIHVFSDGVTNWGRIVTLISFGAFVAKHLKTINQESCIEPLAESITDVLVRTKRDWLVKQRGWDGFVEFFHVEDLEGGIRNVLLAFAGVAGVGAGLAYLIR
Chain of Large T antigen (P03070 whole entry, the tested form may be a part): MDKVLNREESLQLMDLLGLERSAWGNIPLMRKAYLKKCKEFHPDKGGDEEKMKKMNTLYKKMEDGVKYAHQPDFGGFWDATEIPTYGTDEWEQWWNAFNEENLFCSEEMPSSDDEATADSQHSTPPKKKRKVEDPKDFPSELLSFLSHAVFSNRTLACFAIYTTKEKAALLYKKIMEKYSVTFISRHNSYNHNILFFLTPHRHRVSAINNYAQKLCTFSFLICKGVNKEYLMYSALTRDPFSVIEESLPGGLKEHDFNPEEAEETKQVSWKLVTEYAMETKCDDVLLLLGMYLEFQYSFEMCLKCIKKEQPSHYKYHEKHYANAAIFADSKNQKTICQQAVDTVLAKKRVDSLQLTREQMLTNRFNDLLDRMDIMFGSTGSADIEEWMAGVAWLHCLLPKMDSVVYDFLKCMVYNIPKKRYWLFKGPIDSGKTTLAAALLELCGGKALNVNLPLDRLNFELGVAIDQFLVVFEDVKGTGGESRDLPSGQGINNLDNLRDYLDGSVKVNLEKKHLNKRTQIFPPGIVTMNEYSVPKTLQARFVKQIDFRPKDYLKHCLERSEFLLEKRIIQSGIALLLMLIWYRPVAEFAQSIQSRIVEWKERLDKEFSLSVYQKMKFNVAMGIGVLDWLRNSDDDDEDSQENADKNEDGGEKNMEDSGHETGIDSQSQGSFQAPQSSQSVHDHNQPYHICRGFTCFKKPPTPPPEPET

CCCOc1cc(NCc2ccccc2)c2ncn(C(C)C)c2c1
AC50 (INS1): 8.46 µM (active)
IC50 [1]: 5.67 µM (active)

Cc1sc(NC(=O)c2sc3nc4c(C)cccc4cc3c2N)c(C#N)c1C
IC50 [2]: 1.44 µM (active)

COCc1cc(CN2CCCC2)c(O)c2ncccc12
EC50 [3]: 3.07 µM (active)
EC50 [4]: 8.4 µM (active)
EC50 [5]: 4.17 µM (active)
EC50 [6]: 6.21 µM (active)
IC50 (Nonstructural protein 1): 2.31 µM (active)
EC50 [7]: 11.4 µM (active)

COc1cccc(OCC(O)CN2CCC(CN3C(=O)c4cccc5cccc(c45)C3=O)CC2)c1 (stereo unspecified)
EC50 [3]: 2.83 µM (active)
AC50 [8]: 10.6 µM (active)
EC50 [5]: 9.64 µM (active)

COC(=O)C1=C(C)N(Cc2ccco2)C(=O)N[C@H]1c1ccc(Br)cc1
IC50 (cells [9]): 3.12 µM (active)
CC50 [10]: 42.9 µM (active)
EC50 [11]: > 50 µM (active)

O=C(Nc1ccc(Cl)c(Cl)c1)Nc1ccc([N+](=O)[O-])cn1
EC50 (Troponin, cardiac muscle): > 71.5 µM (inactive)

OC(CN1CCCC1)Cn1ccc2ccccc21 (stereo unspecified)
AC50 [8]: 16.1 µM (active)

c1cc2c3c(cccc3c1)NC1(CCC3(CC1)Nc1cccc4cccc(c14)N3)N2
IC50 [1]: 7.06 µM (active)
CC50 [12]: 20 µM (active)

COc1cc(CNC(C)(C)CO)cc(Br)c1OCc1ccc(Cl)cc1Cl
CC50 [13]: 12.5 µM (active)
EC50 [14]: 7.94 µM (active)
CC50 [15]: 19.4 µM (active)
AC50 [16]: 5.33 µM (active)
IC50 (cells [17]): 16.7 µM (active)
AC50 [8]: 18.5 µM (active)
EC50 [18]: 7.38 µM (active)
CC50 [19]: 13.8 µM (active)

N#CC(Cl)Cl
AC50 (Cytochrome P450 3A4): 31.6 µM (inconclusive)

CC(C)CCC(C)N/C=C1/C(=O)N(Cc2ccccc2)C(=O)c2ccccc21 (stereo unspecified)
IC50 [1]: 7.34 µM (active)

CCOc1ccc(NCc2cccn2-c2nnc(N3CCC(C(=O)NCCCN4CCCCC4C)CC3)s2)cc1 (stereo unspecified)
IC50 (Large T antigen): 19.5 µM (active)
AC50 [8]: 19.6 µM (active)

COC(=O)CNC(=O)C1(C)C=CC2(CCCCC2)N1C(=O)OC (stereo unspecified)
AC50 (Cytochrome P450 3A4): 31.6 µM (inconclusive)

CN1C[C@@H](CO)C=C2c3cccc4[nH]cc(c34)CC21 (stereo partly specified)
AC50 (Cytochrome P450 3A4): 31.6 µM (inconclusive)

O=[N+]([O-])c1cccc(NNS(=O)(=O)c2ccccc2F)c1
EC50 [11]: > 50 µM (active)

COc1cc(CNCCCN2CCOCC2)c(Br)cc1OCC(=O)Nc1ccccc1C
EC50 [11]: > 50 µM (active)

CC1CCN(C2=C(NS(=O)(=O)c3ccccc3)C(=O)c3ccccc3C2=O)CC1
IC50 (Nonstructural protein 1): 11.3 µM (active)

Cc1ccc(/C=C2\Oc3c(ccc(O)c3CN3CCN(CCO)CC3)C2=O)cc1
EC50 [20]: 36 µM (active)
EC50 (Troponin, cardiac muscle): 19.5 µM (inactive)
EC50 [21]: 73.9 µM (active)

CCOC(=O)N1CCC(=NNc2ccnc3cc(Cl)ccc23)CC1
EC50 [11]: > 50 µM (active)

CCCCCCC1=Cc2cc(OC)c(OC)cc2C(CC(=O)/C=C/OC)O1 (stereo unspecified)
AC50 (Cytochrome P450 3A4): 5.01 µM (inconclusive)

Cc1ccc(NC(=O)COc2ccc(/C=N/NC(=O)CSCc3ccccc3)cc2)cc1
IC50 [22]: 9.82 µM (active)
EC50 (Troponin, cardiac muscle): > 71.5 µM (inactive)

Oc1ccc(N=Nc2cccc(Cl)c2)cc1/C=N/c1ccc(N2CCOCC2)cc1
IC50 [2]: 5.14 µM (not active)

Clc1cccc(/C=N\Nc2nccs2)c1
IC50 (cells [17]): 12.7 µM (active)
EC50 [11]: > 50 µM (active)

C[C@@H]1CN([C@@H](C)CO)C(=O)Cc2cc(NC(=O)Nc3ccccc3)ccc2O[C@H]1CN(C)Cc1ccc(-c2ccccc2)cc1
AC50 [23]: 18.5 µM (active)
AC50 [24]: 1.87 µM (active)

C[C@H]1CN([C@@H](C)CO)S(=O)(=O)c2ccc(C#Cc3ccc(F)cc3)cc2O[C@@H]1CN(C)C(=O)NC1CCCC1
AC50 [23]: 25.6 µM (active)
AC50 [24]: 6.21 µM (active)

COc1ccc(-c2oc3ccccc3c(=O)c2O)cc1
AC50 (Cytochrome P450 3A4): 3.98 µM (inconclusive)
